Experimental data as given in patent publication US9675768B2, “Aerosolization device” (Nektar Therapeutics, priority 2008, dated 2017).

Assay: In-vitro particle size distribution of the aerosol at the mouthpiece
Type: physicochemical
Description: Percentage of inhaled mass is a measured quantity, and represents the amount of aerosolized medicament which would be inhaled by a patient. Chamber percent is measured and represents the amount remaining in the chamber 22. MMAD is the mass median aerodynamic size of the aerosolized droplets 79, and FPF<5 μm denotes the fine particle fraction under 5 microns, which represents a particle size distribution well suited for delivery to the deep lung. Inhaled mass may be measured by a variety of means, such as by scintigraphy, or by washing the device or component thereof, eluting the drug and directly measuring, e.g. by titration. Inhaled mass measurements are described, for example, in European Standard EN13544-1, which is incorporated by reference herein.
In this Example an in-vitro delivered dose and particle size distribution (PSD) of the device of FIG. 1 was measured, using a dose of 400 mg of amikacin (125 mg/ml; 3.2 ml). Thus, the in-vitro percentage inhaled mass of amikacin sulfate at the mouthpiece under simulated patient breathing was quantified. Under the following conditions: Tidal Volume (TV) was 500 mL; Respiratory rate (RR) was 15 and an inspiratory to expiratory ratio was 2:3. Three devices were tested. Also, an in-vitro particle size distribution (PSD) at the was determined. Mass balance was determined at the end of the first inhaled mass test run. Breathing parameters of the ventilator were verified pre- and post-inhaled mass test runs. The experimental set up is depicted in FIG. 9.

For `NCC[C@H](O)C(=O)N[C@@H]1C[C@H](N)[C@@H](O[C@H]2O[C@H](CN)[C@@H](O)[C@H](O)[C@H]2O)[C@H](O)[C@H]1O[C@H]1O[C@H](CO)[C@@H](O)[C@H](N)[C@H]1O.O=S(=O)(O)O.O=S(=O)(O)O` [amikacin, amikacin sulfate], the “Fine Particle fraction of less than 5 microns (FPF<5.0 μm)” value was “about 66%”, the “Fine Particle Dose of less than 5 microns (FPD<5.0 μm)” value (400 mg dose) was “about 240 mg” and the “Mass Median Aerodynamic Diameter (MMAD) of the aerosolized particles” value (three hand-held devices) was 3.7-3.8 μm.
